Reference: publication PMC6539809, “Development of Oxygen-Bridged Pyrazole-Based Structures as Cannabinoid Receptor 1 Ligands” (Molecules, 2019)
Several values for one entry are separate records, joined by “and”; a condition that tells them apart may be missing. Identical values can stand only once. Like-named read-outs stand apart in the source and are kept apart here.

Key:
CD1 mice = assay: Gastrointestinal transit (GIT), carmine marker; type: in vivo, mouse; conditions: data not shown
Description: The mouse isolated vas deferens is a nerve-smooth muscle preparation that serves as a highly sensitive and quantitative functional in vitro bioassay for cannabinoid CB1R agonists. The effect of CB1 agonists is related to the action on naturally expressed prejunctional neuronal CB1Rs to inhibit release of the contractile neurotransmitters, noradrenaline and ATP, which is provoked by electrical stimulation. It has been shown that CB1 antagonist derivatives are able to block or reduce the inhibition of the electrically evoked contraction amplitude of the vas deferens induced by CB1 agonists, with parallel dextral shifts in CB1R agonist log concentration-response curves in electrically stimulated tissues. According to previous studies concerning cannabinoid agents, a gastrointestinal transit test was adopted to confirm CB1 antagonism. […] Moreover, the capability of CB1 antagonist compounds both to block the constipation effect induced by cannabinoid agonists and to themselves increase themselves gastrointestinal motility has been reported.
The same procedure previously reported by Murineddu et al. was adopted to evaluate the effect of the compounds on GIT. CD1 mice weighing 30–35 g were used. Carmine (Sigma Chemical Co, St. Louis, MO, USA) was suspended (6% wt/v) in distilled water containing 0.5% methylcellulose and administered by gavage at the dose of 0.3 mL/mouse. Briefly, after 20 min from carmine administration, mice were sacrificed by cervical dislocation and the stomach and small intestine were removed and the omentum was separated, avoiding stretching. The length of the intestine was measured starting from the pyloric sphincter to the ileocecal junction. The distance travelled by the head of the marker was measured and expressed as a percent of the total length of the small intestine. Using this procedure, the marker was consistently found at approximately 50% of the small intestine, 20 min after its administration to naive mice.
20 min later, mice were killed by dislocation cervical and intestines were removed. […] The length of the intestine from the pyloric sphincter to the ileocecal junction and the distance travelled by the carmine front were both measured and recorded. Groups of n = 10 mice were used in each experiment.
Statistical analyses were performed by one-way ANOVA followed by Newman-Keuls post-hoc comparison.

CB1 receptor = target: T1, CB1 receptor (Mus musculus, UniProt P47746); assay: CB1 radioligand binding, [3H]-CP-55,940 competition in mouse brain (minus cerebellum) homogenate; conditions: for Ki: mean ± standard error, five independent experiments in triplicate; for CB1-affinity decrease relative to 1a: compared with 1a (Ki 10.25 nM); for Selectivity KiCB2/KiCB1: ratio of KiCB2 to KiCB1
T1 construct: from tissue; host or cells: mouse (CD1) brain minus cerebellum, membrane homogenate
T1 sequence (P47746 whole entry): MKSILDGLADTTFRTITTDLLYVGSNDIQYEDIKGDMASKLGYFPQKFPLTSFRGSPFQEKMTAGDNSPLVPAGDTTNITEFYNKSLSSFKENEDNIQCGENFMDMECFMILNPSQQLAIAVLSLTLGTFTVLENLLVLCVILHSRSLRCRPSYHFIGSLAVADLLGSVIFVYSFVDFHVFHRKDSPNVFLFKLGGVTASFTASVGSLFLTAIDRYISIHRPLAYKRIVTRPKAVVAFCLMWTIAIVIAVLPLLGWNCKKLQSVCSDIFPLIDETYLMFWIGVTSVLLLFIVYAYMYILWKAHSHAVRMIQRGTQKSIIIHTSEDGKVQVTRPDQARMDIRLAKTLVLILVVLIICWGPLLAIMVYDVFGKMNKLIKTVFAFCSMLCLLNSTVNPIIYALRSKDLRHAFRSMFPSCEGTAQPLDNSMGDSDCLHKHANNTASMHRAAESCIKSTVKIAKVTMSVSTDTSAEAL
Protocol: Radioligand binding experimental procedures previously reported by us were adopted.
(§1) Male CD1 mice weighing 30–35 g were killed by cervical dislocation and the brain (minus cerebellum) and spleen were rapidly removed and frozen. After thawing, tissues were homogenated in 20 vol. (wt/v) of ice-cold TME buffer (50 mM Tris-HCl, 1 mM EDTA and 3.0 mM MgCl2, pH 7.4). The homogenates were centrifuged at 1,086 ×g for 10 min at 4 °C, and the resulting supernatants were centrifuged at 45,000 ×g for 30 min.
(§2) All binding studies were performed in disposable glass tubes pre-treated with Sigma-Cote (Sigma Chemical Co., Ltd., Poole, UK), in order to reduce non-specific binding. The reaction was terminated by rapid filtration through Whatman GF/C filters presoaked in 0.5% polyethyleneimine (PEI) using a Brandell 36-sample harvester (Gaithersburg, MD, USA). Filters were washed five times with 4 mL aliquots of ice-cold Tris HCl buffer (pH 7.4) containing 1 mg/mL BSA. The filter bound radioactivity was measured in a liquid scintillation counter (Tricarb 2900, Packard, Meridien, […], USA) with 4 mL of scintillation fluid (Ultima Gold MV, Packard).
(§3) Protein determination was performed by means of a Bradford protein assay using BSA as a standard according to the protocol of the supplier (Bio-Rad, Milan, Italy).
(§4) All experiments were performed in triplicate and results were confirmed in at least five independent experiments. Data from radioligand inhibition experiments were analysed by nonlinear regression analysis of a Sigmoid Curve using Graph Pad Prism program. IC50 values were derived from the calculated curves and converted to Ki values as previously described.

CB2 receptor = target: T2, CB2 receptor (Mus musculus, UniProt P47936); assay: CB2 radioligand binding, [3H]-CP-55,940 competition in mouse spleen homogenate; conditions: [3H]-CP-55,940, mouse spleen homogenate; mean ± standard error, five independent experiments in triplicate; read-out: KiCB2
T2 construct: from tissue; host or cells: mouse (CD1) spleen, membrane homogenate
T2 sequence (P47936 whole entry): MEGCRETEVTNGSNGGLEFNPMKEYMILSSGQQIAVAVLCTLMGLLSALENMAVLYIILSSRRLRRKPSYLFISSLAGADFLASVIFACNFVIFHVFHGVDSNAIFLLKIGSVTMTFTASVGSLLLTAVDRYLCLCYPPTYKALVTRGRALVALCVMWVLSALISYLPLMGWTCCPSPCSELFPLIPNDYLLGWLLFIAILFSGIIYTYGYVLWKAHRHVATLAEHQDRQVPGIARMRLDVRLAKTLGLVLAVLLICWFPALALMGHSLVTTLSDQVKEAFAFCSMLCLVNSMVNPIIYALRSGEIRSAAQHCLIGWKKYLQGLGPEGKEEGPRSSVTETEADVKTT
Protocol: Affinities at CB1R and CB2R for compounds 1c–j were assessed by competition of [^3H]-CP-55,940 in mouse brain (minus cerebellum) and spleen homogenates, respectively. Radioligand binding experimental procedures previously reported by us were adopted.
as §1
as §2, with “[^3H]-CP-55,940 binding was performed using the method previously described by Ruiu et al.. Briefly, the membranes (30–80 µg of protein) were incubated with 0.5–1 nM of [^3H]-CP-55,940 for 1 h at 30 °C in a final volume of 0.5 mL of TME buffer containing 5 mg/mL of fatty acid-free bovine serum albumin. Non-specific binding was estimated in the presence of 1 µM of CP-55,940. All” for “All”
as §3, §4

[1] = target: T3, CB1Rs of mouse vas deferens (Mus musculus, UniProt P47746); assay: Isolated organ assay: electrically evoked contractions of mouse vas deferens; conditions: cumulative concentration-response curve
T3 construct: naturally expressed prejunctional neuronal CB1Rs; from tissue; host or cells: isolated vas deferens of male albino CD1 mice
T3 sequence (P47746 whole entry): as the sequence (P47746 whole entry) above
Protocol: Vas deferens was obtained from male albino CD1 mice weighing 30 to 40 g. Tissue was mounted in a 10 mL organ bath at an initial tension of 0.5 g using a previously described method [16]. The bath contained Krebs-Henseleit solution (118.2 mM NaCl, 4.75 mM KCl, 1.19 mM KH2PO4, 25.0 mM NaHCO3, 11.0 mM glucose, and 2.54 mM CaCl2), which was kept at 37 °C and bubbled with 95% O2 and 5% CO2. Isometric contractions were evoked by stimulation with 0.5 sec trains of three pulses of 110% maximal voltage (train frequency, 0.1 Hz; pulse duration, 0.5 msec) through platinum electrodes attached to the upper end of each bath and a stainless-steel electrode attached to the lower end. Stimuli were generated using a Grass S88K stimulator and then amplified (multiplexing pulse booster 316S; Ugo Basile, Comerio, Italy) and divided to yield separate outputs to four organ baths. Contractions were monitored using a computer equipped with a data recording and analysis system (PowerLab 400) linked via preamplifiers (QuadBridge) to an F10 transducer (Biological Instruments, Besozzo, Italy). Each tissue was subject to several periods of stimulation. […] The stimulator was then switched off for 15 min, after which the tissues were subjected to further periods of stimulation each lasting 5 min and separated by a stimulation-free period. The compounds to be assayed were added once the contractile responses to electrical stimulation were reproducible. Preparations were exposed to cumulative increasing concentrations of the compounds to obtain concentration-response curves in the case of CB1 agonist (and partial agonist) compounds. […] Inhibition of the electrically evoked twitch response was expressed in percentage terms and was calculated by comparing the amplitude of the twitch response after each addition of the agonist compound (alone or in the presence of a potential CB1 antagonist) with the amplitude detected in absence of the compounds to be assayed (basal value). The pA2 values for competitive antagonism were calculated by Schild regression analysis [37]. Data were plotted as log antagonist concentration versus log [(antagonist concentration/agonist concentration)-1].

[2] = tested on: P-ERK 1/2 expression in mouse neuroblastoma N1E-115 cells (CB1Rs); assay: P-ERK 1/2 expression in N1E-115 cells (Western blot); type: cell-based; conditions: 10 min exposure
Protocol: Agonist or antagonist activity of the new derivatives towards CB1Rs were assayed through in vitro testing based on the determination of phosphorylated ERK 1/2 (P-ERK 1/2) expression in a mouse neuroblastoma N1E-115 cell line. As previously reported, this cell line expresses CB1Rs but not CB2Rs; moreover, it has been shown that the exposure of N1E-115 cells to the cannabinoid agonists arachidonyl-2-chloroethylamide (ACEA) and WIN 55-212,2 induces a rapid phosphorylation and activation of the ERK 1/2. The addition of CB1 antagonists as SR141716A abolishes the response induced by the cannabinoid agonists.
N1E-115 cells were grown at 37 °C in humidified 5% CO2 in Dulbecco’s Modified Eagle’s Medium (high glucose supplemented with 10% fetal bovine serum (FBS), 1 μg/mL penicillin-streptomycin, 2 mM L-glutamine, 2.5 μg/mL amphotericin B and 50 μg/mL gentamicin). […] Tested and reference compounds were dissolved in Dulbecco’s phosphate buffered saline (D-PBS) with 1% DMSO and treatments were performed in a volume of 10 μL/mL of cell suspension.
P-ERK 1/2 expression was determined through Western blot analysis according to the previously reported procedure. One-way ANOVA was performed as a statistical analysis using the Graph Pad Prism program (San Diego, CA, USA).
The same procedure was adopted to determine CB1 specific antagonism for compounds which had no effect on P-ERK 1/2 expression themselves. In these last cases, WIN55,212-2 at 25 nM as a reference cannabinoid agonist agent and the new CB1 antagonists at 150–200 nM were employed.

C57Bl6/J mice = assay: Acute food intake in fasted mice; type: in vivo, mouse
Protocol: To further evaluate the potential application of these CB1 antagonists in the control of food intake and in obesity treatment, compound 1b was preliminarily tested in comparison with SR141716A in an acute in vivo assay using C57Bl6/J mice. The evaluation was carried out according to the animal model previously reported by Di Marzo [19].
It is well known that CB1Rs mediate the hyperphagic effect of cannabinoids. […] To test the potential anti-obesity effect of the new CB1 antagonist 1b we performed food intake experiments according to the acute animal model described by Di Marzo [19]. For a comparison we also reported the results concerning the assumed lead compound of this new series, derivative 1a.
A widely described method was used for the screening of the new CB1 antagonists in the food intake animal model. C57Bl6/J mice weighing 20–25 g were housed individually on a reverse light-dark cycle in a room with temperature and humidity control. The mice were fasted for 18 h before testing. Vehicle or CB1 antagonists were administered by an intraperitoneal injection and 15 min later a known amount of food was presented. Food pellets were weighed after each hour for three hours. Rimonabant was used as internal positive control in order to evaluate the efficacy of each compound. All animal experiments were performed according to the UE (CEE N° 86/609) guidelines for the care and use of experimental animals.
Two-way ANOVA with Bonferroni post-testing was performed using GraphPad Prism version 5.00 for Windows (GraphPad Software, San Diego CA, USA).

[3] = [3H]-CP 55,940, mouse brain (minus cerebellum) homogenate, read-out: KiCB1

SMILES	melting point	Ki (CB1 receptor; [3])	CB1-affinity decrease relative to 1a (CB1 receptor)	Ki (CB2 receptor)	also measured
O=C(NN1CCCC1)c1nn(-c2ccc(Cl)cc2Cl)c2c1CCOc1cc(Cl)ccc1-2 [Compound 1c, 8-Chloro-1-(2,4-dichlorophenyl)-N-pyrrolidin-1-yl-4,5-dihydrobenzo-1H-6-oxa-cyclohepta[1,2-c]pyrazole-3-carbohydrazide]	175 °C	< 60 nM and 55.1 nM	5.4 fold	4500 ± 500 nM	Effect on gastrointestinal transit compared with that of 1b (CD1 mice): Analogue results; Selectivity KiCB2/KiCB1 (CB1 receptor): > 57
O=C(NN1CCCCCC1)c1nn(-c2ccc(Cl)cc2Cl)c2c1CCOc1cc(Cl)ccc1-2 [Compound 1d, 8-Chloro-1-(2,4-dichlorophenyl)-N-homopiperidin-1-yl-4,5-dihydrobenzo-1H-6-oxa-cyclohepta[1,2-c]pyrazole-3-carbohydrazide]	137 to 138 °C	< 60 nM and 35 nM	3.5 fold	2000 ± 50 nM	Effect on gastrointestinal transit compared with that of 1b (CD1 mice): Analogue results; Selectivity KiCB2/KiCB1 (CB1 receptor): > 57
CC1(C)C2CCC(CNC(=O)c3nn(-c4ccc(Cl)cc4Cl)c4c3CCOc3cc(Cl)ccc3-4)C1C2 (stereo not shown) [Compound 1e, 8-Chloro-1-(2,4-dichlorophenyl)-N-(6,6-dimethyl-bicyclo[3.1.1]hept-2-yl-methyl)-4,5-dihydrobenzo-1H-6-oxa-cyclohepta[1,2-c]pyrazole-3-carboxamide]	142 to 143 °C	–	–	–	Maximum inhibition of the amplitude of electrically-evoked contractions [1]: around 60%; Concentration up to which a dose response effect on P-ERK 1/2 expression was highlighted ([2]; N1E-115 cells): ≤ 75 nM; Effect on P-ERK 1/2 expression (agonist activity towards CB1) ([2]; compound alone, 1b–d at concentrations up to 1 μM): CB1 agonist activity
O=C(Nc1ccccc1)c1nn(-c2ccc(Cl)cc2Cl)c2c1CCOc1cc(Cl)ccc1-2 [Compound 1f, 8-Chloro-1-(2,4-dichlorophenyl)-N-phenyl-4,5-dihydrobenzo-1H-6-oxa-cyclohepta[1,2-c]pyrazole-3-carboxamide]	130 °C	233 ± 33 nM	23 fold	4120 ± 620 nM	–
O=C(Nc1ccc(Cl)cc1)c1nn(-c2ccc(Cl)cc2Cl)c2c1CCOc1cc(Cl)ccc1-2 [Compound 1g, 8-Chloro-1-(2,4-dichlorophenyl)-N-(p-chlorophenyl)-4,5-dihydrobenzo-1H-6-oxa-cyclohepta[1,2-c]pyrazole-3-carboxamide]	239 °C	318 ± 36 nM	–	> 5000 nM	–
Cc1ccc(NC(=O)c2nn(-c3ccc(Cl)cc3Cl)c3c2CCOc2cc(Cl)ccc2-3)cc1 [Compound 1h, 8-Chloro-1-(2,4-dichlorophenyl)-N-tolyl-4,5-dihydrobenzo-1H-6-oxa-cyclohepta[1,2-c] pyrazole-3-carboxamide]	181 °C	–	–	> 5000 nM	Ki (CB1 receptor; KiCB1, [3H]-CP 55,940, mouse brain (minus cerebellum) homogenate): 429 ± 49 nM
COc1ccc(NC(=O)c2nn(-c3ccc(Cl)cc3Cl)c3c2CCOc2cc(Cl)ccc2-3)cc1 [Compound 1i, 8-Chloro-1-(2,4-dichlorophenyl)-N-(p-methoxyphenyl)-4,5-dihydrobenzo-1H-6-oxa-cyclohepta[1,2-c]pyrazole-3-carboxamide]	214 °C	330 ± 45 nM	–	> 5000 nM	–
O=C(Nc1ccc(C(F)(F)F)cc1)c1nn(-c2ccc(Cl)cc2Cl)c2c1CCOc1cc(Cl)ccc1-2 [Compound 1j]	249 to 250 °C	459 ± 57 nM	–	> 5000 nM	–
Cc1c(C(=O)NN2CCCCC2)nn(-c2ccc(Cl)cc2Cl)c1-c1ccc(Cl)cc1 [rimonabant, N-piperidinyl-5-(4-chlorophenyl)-1-(2,4-dichlorophenyl)-4-methyl-1H-pyrazole-3-carboxamide, reference compound]	–	–	–	–	Food intake effect over time (C57Bl6/J mice; 10 mg/kg i.p., at 2 h and 3 h): fades away; Observable side effects / behavioural effects (C57Bl6/J mice; 20 mg/kg (highest assayed dosage)): marked behavioural effects
